According to US20030204875A1, “Novel agrobacterium-mediated plant transformation method” (priority 1999, published 2003):
Like-named read-outs stand apart in the source and are kept apart here.

Legend:
[1] = system: immature embryos of genotype (H99×Pa 91)A188
Protocol: Immature embryos of genotype (H99×Pa 91)A188 were isolated as described. […] The Agrobacterium strain was pre-induced as described and three mls of pre-induced Agrobacterium suspension (A660 OD 0.5) supplemented with 20 ? M AgNO3 was added to a 6-well tissue culture plate as described above. Inoculation was performed for 15 minutes. The Agrobacterium suspension was removed and embryos were placed on semi-solid co-culture medium containing 20 ? M AgNO3 (final concentration). All the tissues were incubated for three days in the dark. […] Control embryos were cultured in the absence of AgNO3 in all steps of the transformation process. Transformation efficiency was calculated based on the number of embryos producing paromomycin resistant calli.

[2] = system: Agrobacterium (strain ABI); type: cell-based; parameters: key: “No Growth” indicates there was not an increase in cell density indicating bacteriocidal or bacteriostatic property of the chemical; “Slow Growth” indicates that a slight increase in cell density was noticed and a higher level may be lethal; “Growth” indicates no effect on bacterial growth at the concentration used relative to growth in control medium; conditions: control, AgNO3 20 μM; twenty-four hours
Protocol: Each of the chemicals listed in Table 26 was resuspended in MS-BMS media and added (final concentration 50 μM) to a 50 ml overnight culture of Agrobacterium (strain ABI). Twenty-four hours after inoculation the effect of the chemicals on the growth of Agrobacterium was recorded. A known bacteriocidal compound, Carbenicillin at a final concentration of 50 mg/L and AgNO3 (20 μM) were used as controls.

[3] = system: immature embryos of genotype (H99×Pa 91)A188; test: Transformation efficiency of corn with different growth inhibiting agents during co-culture; type: cell-based; conditions: three days, OD 4.0
Protocol: b) Biological assay (leaf bleach assay). Leaf samples (a leaf punch) from approximately 2-week-old seedlings were placed in wells of 24-well cell culture clusters (Costar Corporation, Cambridge, Mass.). Each well was filled with 0.5 ml aqueous solution composed of 300 mg/L paromomycin (Sigma) and 100 mg/L Benlate (a fungicide made by Du Pont), 100 mg/IL Benlate alone was used as a control. Three leaf samples from the same leaf of each plant were placed in two wells containing paromomycin plus Benlate and one well containing Benlate alone, respectively. Leaf samples from non-transformed plants were used as negative controls. The samples were vacuum-infiltrated in a dessicator using an in-house vacuum system for 5 min and then the clusters were sealed tightly with parafilm before being placed under light (140 μMol m-2s-1). The results were determined after 60 hours.
(§1) Immature embryos of genotype (H99×Pa 91)A188 were isolated as described. […] The Agrobacterium strain was pre-induced as described. The inoculation was performed using a concentration of A660 OD 4.0 for 15 minutes as described. Post inoculation, Agrobacterium suspension was removed and embryos were placed on different semi-solid co-culture media supplemented with various bacteriocidal compounds. All the tissues were incubated for three days in the dark. The transformation protocol followed was as described previously (corn IE transformation) except that the 1st selection with 50 mg/L Paromomycin was replaced with 25 mg/L Paromomycin for 2 weeks and 50 mg/L Paromomycin for 2 additional weeks. Transformation efficiency was calculated based on the number of embryos producing nptII positive plants as determined by a leaf bleach assay as described earlier. Three weeks after the transformation, the quality and growth characteristics of IE-derived callus co-cultured in the presence of different growth inhibiting agents.

rice immature embryos = conditions: OD660 2.0 plus 20 mM AgNO3, co-culture one day
Protocol: (§2) The following transformation protocols included the following parameters: use of immature embryos that were pre-cultured for less than 24 h; a bacterial inoculation density >2.0 at OD660, a co-culture duration of from one to three days, the use of a higher concentration of auxin or different type of auxin/combination of growth regulators than that required during normal tissue culture, a delay period 3-7d following co-culture (with out selection pressure), no sub-culture of the original explant, a step-wise increase or decrease, depending on the crop and selection scheme and a transformation duration between 9-12 weeks.

wheat immature embryos = conditions: OD660 4.0 plus 20 mM AgNO3, co-culture three days
Protocol: as §2

corn immature embryos = system: corn immature embryos
Protocol: as §2

[4] = system: IE-derived callus, genotype (H99×Pa 91)A188; conditions: 50 μM in co-culture medium; three weeks after the transformation
Protocol: as §1

[5] = system: T-DNA delivery to immature embryos of corn genotype H99×A188; conditions: co-culture with 10 μM AgNO3, three days
Protocol: The Agrobacterium strain was pre-induced as described previously and three mls of pre-induced Agrobacterium suspension (A660 OD 1.0, 2.0, 3.0 and 4.0) was used. After adding the explants the Agrobacterium suspension cells, the inoculation was performed for 15 minutes. The Agrobacterium suspension was removed and embryos were placed on 1/2 MS corn co-culture medium supplemented with 10 ? M AgNO3 (final concentration). The co-culture duration was for three days in the dark. The efficiency of T-NA delivery was estimated by a transient GUS analysis three days after co-culture by incubating embryos directly in GUS staining buffer for 12-15 hours and counting the number of GUS foci per immature embryo explant (Table 20).

[6] = system: Agrobacterium tumefaciens strain C58 (ABI)
Protocol: Disarmed Agrobacterium tumefaciens strain C58 (ABI) harboring binary vector pMON18365 (FIG. 2) was used in this Example. The Agrobacterium strain was pre-induced as described previously.
Three mls of pre-induced Agrobacterium suspension (A660 OD 1.0) was added to a 6-well tissue culture plate. After adding the explants, the plant tissues and Agrobacterium suspension cells were subjected to vacuum infiltration for three hours. After the three hour vacuum infiltration, the Agrobacterium suspension was removed and the plant tissues were placed on semi-solid medium containing 10 ? M AgNO3 (final concentration). All the tissues were incubated for three days in the dark.
All explants were transferred to the medium without the growth inhibiting agent and evaluation of Agrobacterium growth was observed seven days post-transfer.

O=[N+]([O-])[O-].[Ag+] [AgNO3, silver nitrate]
% Transformation ([1]; 5d 20 μM AgNO3: present during inoculation and 5 day delay, not during 3 day co-culture): 7.8 (4/51) %
% Transformation ([1]; 8d 20 μM AgNO3: present during inoculation, 3 day co-culture and 5 day delay): 9.0 (5/55) %
Effect (on growth of Agrobacterium) [2]: No Growth
% Transformation ([3]; 20 μM in co-culture medium): 16%
% Transformation ([3]; 50 μM in co-culture medium): 6.3%
Transformation (%) (rice immature embryos): 23%
Transformation (%) (wheat immature embryos): 4%
Transformation (%) (corn immature embryos; OD660 2.0 plus 20 μM AgNO3, co-culture three days): 18%
Transformation (%) (corn immature embryos; OD660 4.0 plus 20 μM AgNO3, co-culture three days): 8%
Culture response (callus quality) on co-culture media [4]: embryogenically the most competent callus
Average number of GUS foci/explant ([5]; OD660 1.0, Pre-induced): 7
Average number of GUS foci/explant ([5]; OD660 2.0, Not pre-induced (grown in LB)): 2
Average number of GUS foci/explant ([5]; OD660 2.0, Pre-induced): 28
Average number of GUS foci/explant ([5]; OD660 3.0, Pre-induced): 39
Average number of GUS foci/explant ([5]; OD660 4.0, Not pre-induced (grown in LB)): <1
Average number of GUS foci/explant ([5]; OD660 4.0, Pre-induced): 66
Growth of Agrobacterium cells surrounding explants ([6]; co-culture medium with 10 μM AgNO3, three days): No growth
Growth of Agrobacterium cells surrounding explants after transfer to medium without the agent ([6]; seven days post-transfer, after three days on 10 μM AgNO3): Profuse growth
